pIC50: −log10 of the molar value. In brackets after ≈: the same amount, converted by molar mass.
Key:
Staphylococcus aureus [1] = assay: Antibacterial activity against Staphylococcus aureus NCTC 4163 after 18 hrs by CLSI disc diffusion method; assay type: functional; details: NCTC 4163, 18 h
Staphylococcus aureus [2] = assay: Antibacterial activity against Staphylococcus aureus ATCC 25923 after 18 hrs by CLSI disc diffusion method; assay type: functional; details: ATCC 25923, 18 h
Staphylococcus aureus [3] = assay: Antibacterial activity against Staphylococcus aureus ATCC 6538 after 18 hrs by CLSI disc diffusion method; assay type: functional; details: ATCC 6538, 18 h
[4] = test system: Staphylococcus epidermidis; assay: Antibacterial activity against Staphylococcus epidermidis ATCC 12228 after 18 hrs by CLSI disc diffusion method; assay type: functional; details: ATCC 12228, 18 h
[5] = test system: Staphylococcus epidermidis; assay: Antibacterial activity against Staphylococcus epidermidis ATCC 35984 after 18 hrs by CLSI […] method; assay type: functional; details: ATCC 35984, 18 h
Bacillus spizizenii = assay: Antibacterial activity against Bacillus subtilis ATCC 6633 after 18 hrs by CLSI disc diffusion method; assay type: functional; details: ATCC 6633, 18 h
Bacillus cereus = assay: Antibacterial activity against Bacillus cereus ATCC 11778 after 18 hrs by CLSI disc diffusion method; assay type: functional; details: ATCC 11778, 18 h
Enterococcus hirae = assay: Antibacterial activity against Enterococcus hirae ATCC 10541 after 18 hrs by CLSI disc diffusion method; assay type: functional; details: ATCC 10541, 18 h
Enterococcus faecalis = assay: Antibacterial activity against Enterococcus faecalis ATCC 29212 after 18 hrs by CLSI disc diffusion method; assay type: functional; details: ATCC 29212, 18 h
Micrococcus luteus [6] = assay: Antibacterial activity against Micrococcus luteus ATCC 10240 after 18 hrs by CLSI disc diffusion method; assay type: functional; details: ATCC 10240, 18 h
Micrococcus luteus [7] = assay: Antibacterial activity against Micrococcus luteus ATCC 9341 after 18 hrs by CLSI disc diffusion method; assay type: functional; details: ATCC 9341, 18 h
Escherichia coli [8] = assay: Antibacterial activity against Escherichia coli ATCC 10538 after 18 hrs by CLSI disc diffusion method; assay type: functional; details: ATCC 10538, 18 h
Proteus vulgaris = assay: Antibacterial activity against Proteus vulgaris NCTC 4635 after 18 hrs by CLSI disc diffusion method; assay type: functional; details: NCTC 4635, 18 h
Pseudomonas aeruginosa [9] = assay: Antibacterial activity against Pseudomonas aeruginosa ATCC 15442 after 18 hrs by CLSI disc diffusion method; assay type: functional; details: ATCC 15442, 18 h
Pseudomonas aeruginosa [10] = assay: Antibacterial activity against Pseudomonas aeruginosa ATCC 27853 after 18 hrs by CLSI disc diffusion method; assay type: functional; details: ATCC 27853, 18 h
[11] = test system: Bordetella bronchiseptica; assay: Antibacterial activity against Bordetella bronchiseptica ATCC 4617 after 18 hrs by CLSI disc diffusion method; assay type: functional; details: ATCC 4617, 18 h
Staphylococcus aureus [12] = assay: Antibacterial activity against Staphylococcus aureus 495 after 18 hrs by CLSI disc diffusion method; assay type: functional; details: Staphylococcus aureus, 495, 18 h
Staphylococcus aureus [13] = assay: Antibacterial activity against Staphylococcus aureus 496 after 18 hrs by CLSI disc diffusion method; assay type: functional; details: Staphylococcus aureus, 496, 18 h
Staphylococcus aureus [14] = assay: Antibacterial activity against Staphylococcus aureus 497 after 18 hrs by CLSI disc diffusion method; assay type: functional; details: Staphylococcus aureus, 497, 18 h
Staphylococcus aureus [15] = assay: Antibacterial activity against Staphylococcus aureus 498 after 18 hrs by CLSI disc diffusion method; assay type: functional; details: Staphylococcus aureus, 498, 18 h
Staphylococcus aureus [16] = assay: Antibacterial activity against Staphylococcus aureus 537 after 18 hrs by CLSI disc diffusion method; assay type: functional; details: Staphylococcus aureus, 537, 18 h
Staphylococcus aureus [17] = assay: Antibacterial activity against Staphylococcus aureus 572 after 18 hrs by CLSI disc diffusion method; assay type: functional; details: Staphylococcus aureus, 572, 18 h
Staphylococcus aureus [18] = assay: Antibacterial activity against Staphylococcus aureus 585 after 18 hrs by CLSI disc diffusion method; assay type: functional; details: Staphylococcus aureus, 585, 18 h
Staphylococcus aureus [19] = assay: Antibacterial activity against Staphylococcus aureus 586 after 18 hrs by CLSI disc diffusion method; assay type: functional; details: Staphylococcus aureus, 586, 18 h
[20] = test system: Staphylococcus epidermidis; assay: Antibacterial activity against Staphylococcus epidermidis 423 after 18 hrs by CLSI disc diffusion method; assay type: functional; details: Staphylococcus epidermidis, 423, 18 h
[21] = test system: Staphylococcus epidermidis; assay: Antibacterial activity against Staphylococcus epidermidis 431 after 18 hrs by CLSI disc diffusion method; assay type: functional; details: Staphylococcus epidermidis, 431, 18 h
[22] = test system: Staphylococcus epidermidis; assay: Antibacterial activity against Staphylococcus epidermidis 432 after 18 hrs by CLSI disc diffusion method; assay type: functional; details: Staphylococcus epidermidis, 432, 18 h
[23] = test system: Staphylococcus epidermidis; assay: Antibacterial activity against Staphylococcus epidermidis 433 after 18 hrs by CLSI disc diffusion method; assay type: functional; details: Staphylococcus epidermidis, 433, 18 h
[24] = test system: Staphylococcus epidermidis; assay: Antibacterial activity against Staphylococcus epidermidis 469 after 18 hrs by CLSI disc diffusion method; assay type: functional; details: Staphylococcus epidermidis, 469, 18 h
[25] = test system: Staphylococcus epidermidis; assay: Antibacterial activity against Staphylococcus epidermidis 471 after 18 hrs by CLSI disc diffusion method; assay type: functional; details: Staphylococcus epidermidis, 471, 18 h
[26] = test system: Staphylococcus epidermidis; assay: Antibacterial activity against Staphylococcus epidermidis 510 after 18 hrs by CLSI disc diffusion method; assay type: functional; details: Staphylococcus epidermidis, 510, 18 h
[27] = test system: Staphylococcus epidermidis; assay: Antibacterial activity against Staphylococcus epidermidis 511 after 18 hrs by CLSI disc diffusion method; assay type: functional; details: Staphylococcus epidermidis, 511, 18 h
Pseudomonas aeruginosa [28] = assay: Antibacterial activity against Pseudomonas aeruginosa 6m after 18 hrs by CLSI disc diffusion method; assay type: functional
Pseudomonas aeruginosa [29] = assay: Antibacterial activity against Pseudomonas aeruginosa 7m after 18 hrs by CLSI disc diffusion method; assay type: functional
Pseudomonas aeruginosa [30] = assay: Antibacterial activity against Pseudomonas aeruginosa 10m after 18 hrs by CLSI disc diffusion method; assay type: functional
Pseudomonas aeruginosa [31] = assay: Antibacterial activity against Pseudomonas aeruginosa 11m after 18 hrs by CLSI disc diffusion method; assay type: functional
Pseudomonas aeruginosa [32] = assay: Antibacterial activity against Pseudomonas aeruginosa 12m after 18 hrs by CLSI disc diffusion method; assay type: functional
Pseudomonas aeruginosa [33] = assay: Antibacterial activity against Pseudomonas aeruginosa 16m after 18 hrs by CLSI disc diffusion method; assay type: functional
Pseudomonas aeruginosa [34] = assay: Antibacterial activity against Pseudomonas aeruginosa 18m after 18 hrs by CLSI disc diffusion method; assay type: functional
Pseudomonas aeruginosa [35] = assay: Antibacterial activity against Pseudomonas aeruginosa 31m after 18 hrs by CLSI disc diffusion method; assay type: functional
Escherichia coli [36] = assay: Antibacterial activity against Escherichia coli ML 5 after 18 hrs by CLSI disc diffusion method; assay type: functional; details: ML 5, 18 h
Escherichia coli [37] = assay: Antibacterial activity against Escherichia coli ML 6 after 18 hrs by CLSI disc diffusion method; assay type: functional; details: ML 6, 18 h
Escherichia coli [38] = assay: Antibacterial activity against Escherichia coli ML 8 after 18 hrs by CLSI disc diffusion method; assay type: functional; details: ML 8, 18 h
Escherichia coli [39] = assay: Antibacterial activity against Escherichia coli ML 9 after 18 hrs by CLSI disc diffusion method; assay type: functional; details: ML 9, 18 h
Escherichia coli [40] = assay: Antibacterial activity against Escherichia coli ML 12 after 18 hrs by CLSI disc diffusion method; assay type: functional; details: ML 12, 18 h
Escherichia coli [41] = assay: Antibacterial activity against Escherichia coli ML 15 after 18 hrs by CLSI disc diffusion method; assay type: functional; details: ML 15, 18 h
Escherichia coli [42] = assay: Antibacterial activity against Escherichia coli ML 16 after 18 hrs by CLSI disc diffusion method; assay type: functional; details: ML 16, 18 h
Escherichia coli [43] = assay: Antibacterial activity against Escherichia coli ML 17 after 18 hrs by CLSI disc diffusion method; assay type: functional; details: ML 17, 18 h
A549 = assay: Cytotoxicity activity against human A549 cells assessed as reduction in cell viability after 72 hrs by MTT assay; assay type: cell-based; details: A549, 72 h
HaCaT = assay: Cytotoxicity activity against human HaCaT cells assessed as reduction in cell viability after 72 hrs by MTT assay; assay type: cell-based
[44] = Selectivity index, ratio of IC50 for human HaCaT cells to MIC for Staphylococcus aureus NCTC 4163; assay type: toxicity; details: read-out: Selectivity Index
[45] = Selectivity index, ratio of IC50 for human HaCaT cells to MIC for Bacillus subtilis ATCC 6633; assay type: toxicity; details: read-out: Selectivity Index
[46] = Selectivity index, ratio of IC50 for human HaCaT cells to MIC for Enterococcus hirae ATCC 10541; assay type: toxicity; details: read-out: Selectivity Index
[47] = Selectivity index, ratio of IC50 for human HaCaT cells to MIC for Micrococcus luteus ATCC 10240; assay type: toxicity; details: read-out: Selectivity Index
[48] = Selectivity index, ratio of IC50 for human HaCaT cells to MIC for Escherichia coli ATCC 10538; assay type: toxicity; details: read-out: Selectivity Index
[49] = Selectivity index, ratio of IC50 for human HaCaT cells to MIC for Proteus vulgaris NCTC 4635; assay type: toxicity; details: read-out: Selectivity Index
[50] = Selectivity index, ratio of IC50 for human HaCaT cells to MIC for Bordetella bronchiseptica ATCC 4617; assay type: toxicity; details: read-out: Selectivity Index
[51] = Inhibition of Staphylococcus aureus DNA topoisomerase 4 using Kinetoplast DNA as substrate after 30 mins by ethidium bromide staining based agarose gel electrophoresis method

MIC (Staphylococcus aureus [1]): 14 µM (≈ 4.06 µg/mL)
MIC (Staphylococcus aureus [2]): 14 µM (≈ 4.06 µg/mL)
MIC (Staphylococcus aureus [3]): 7 µM (≈ 2.03 µg/mL)
MIC [4]: 7 µM (≈ 2.03 µg/mL)
MIC [5]: 7 µM (≈ 2.03 µg/mL)
MIC (Bacillus spizizenii): 7 µM (≈ 2.03 µg/mL)
MIC (Bacillus cereus): 7 µM (≈ 2.03 µg/mL)
MIC (Enterococcus hirae): 28 µM (≈ 8.11 µg/mL)
MIC (Enterococcus faecalis): 56 µM (≈ 16.2 µg/mL)
MIC (Micrococcus luteus [6]): 7 µM (≈ 2.03 µg/mL)
MIC (Micrococcus luteus [7]): 14 µM (≈ 4.06 µg/mL)
MIC (Escherichia coli [8]): 14 µM (≈ 4.06 µg/mL)
MIC (Proteus vulgaris): 14 µM (≈ 4.06 µg/mL)
MIC (Pseudomonas aeruginosa [9]): 111 µM (≈ 32.2 µg/mL)
MIC (Pseudomonas aeruginosa [10]): 14 µM (≈ 4.06 µg/mL)
MIC [11]: 14 µM (≈ 4.06 µg/mL)
MIC (Staphylococcus aureus [12]): 7 µM (≈ 2.03 µg/mL)
MIC (Staphylococcus aureus [13]): 14 µM (≈ 4.06 µg/mL)
MIC (Staphylococcus aureus [14]): 7 µM (≈ 2.03 µg/mL)
MIC (Staphylococcus aureus [15]): 7 µM (≈ 2.03 µg/mL)
MIC (Staphylococcus aureus [16]): 14 µM (≈ 4.06 µg/mL)
MIC (Staphylococcus aureus [17]): 14 µM (≈ 4.06 µg/mL)
MIC (Staphylococcus aureus [18]): 7 µM (≈ 2.03 µg/mL)
MIC (Staphylococcus aureus [19]): 14 µM (≈ 4.06 µg/mL)
MIC [20]: 7 µM (≈ 2.03 µg/mL)
MIC [21]: 7 µM (≈ 2.03 µg/mL)
MIC [22]: 14 µM (≈ 4.06 µg/mL)
MIC [23]: 14 µM (≈ 4.06 µg/mL)
MIC [24]: 7 µM (≈ 2.03 µg/mL)
MIC [25]: 14 µM (≈ 4.06 µg/mL)
MIC [26]: 14 µM (≈ 4.06 µg/mL)
MIC [27]: 14 µM (≈ 4.06 µg/mL)
MIC (Pseudomonas aeruginosa [28]): 14 µM (≈ 4.06 µg/mL)
MIC (Pseudomonas aeruginosa [29]): 14 µM (≈ 4.06 µg/mL)
MIC (Pseudomonas aeruginosa [30]): 14 µM (≈ 4.06 µg/mL)
MIC (Pseudomonas aeruginosa [31]): 28 µM (≈ 8.11 µg/mL)
MIC (Pseudomonas aeruginosa [32]): 14 µM (≈ 4.06 µg/mL)
MIC (Pseudomonas aeruginosa [33]): 28 µM (≈ 8.11 µg/mL)
MIC (Pseudomonas aeruginosa [34]): 28 µM (≈ 8.11 µg/mL)
MIC (Pseudomonas aeruginosa [35]): 14 µM (≈ 4.06 µg/mL)
MIC (Escherichia coli [36]): 14 µM (≈ 4.06 µg/mL)
MIC (Escherichia coli [37]): 111 µM (≈ 32.2 µg/mL)
MIC (Escherichia coli [38]): 14 µM (≈ 4.06 µg/mL)
MIC (Escherichia coli [39]): 28 µM (≈ 8.11 µg/mL)
MIC (Escherichia coli [40]): 111 µM (≈ 32.2 µg/mL)
MIC (Escherichia coli [41]): 111 µM (≈ 32.2 µg/mL)
MIC (Escherichia coli [42]): 14 µM (≈ 4.06 µg/mL)
MIC (Escherichia coli [43]): 14 µM (≈ 4.06 µg/mL)
IC50 [51]: 11.9 µg/mL (≈ 41.1 µM)
Structure (SMILES): Cc1ccc(-n2nnnc2NCc2ccco2)cc1Cl
pIC50 (A549): 4.11
pIC50 (HaCaT): 4.10
selectivity ratio [44]: 5.71
selectivity ratio [45]: 11.4
selectivity ratio [46]: 2.85
selectivity ratio [47]: 11.4
selectivity ratio [48]: 11.4
selectivity ratio [49]: 11.4
selectivity ratio [50]: 11.4
